US9351956B1, “Pharmaceutical composition comprising an enantiomer of lipoamide and derivatives thereof and method of use” (GeroNova Research Inc., priority 2012, dated 2016)

Assays:
Format in all cases: cell-based
Conditions in all cases: HepG2 cells, 0.2 mM, 8 hours, 5.5 mM glucose
[1] = tested on: retinoic acid response element (RAR); assay: dual-luciferase reporter array, RAR
Protocol: (§1) Nine test compounds were synthesized and characterized. The effects of R, S and RS forms of LA, LAM and LAP on multiple signaling pathways were studied in HepG2 cells at 0.2 mM for 8 hours (5.5 mM glucose) using a dual-luciferase reporter array. The reporter is a mixture of Firefly Luciferase gene construct under control of an inducible transcription factor-responsive promoter and an internal control plasmid constitutively expressing Renilla luciferase gene. Each inducible construct monitors changes in the activity of a select transcription factor serving as a marker for activation or suppression of a specific signaling pathway.

PI3K/AKT = assay: dual-luciferase reporter array, FOXO reporter as inverse marker for PI3K/AKT
Protocol: as §1
This above studies identified previously unknown enantioselective and non-enantioselective pathways differentially affected by LA and amide derivatives. In some cases the racemic compounds activate pathways not activated by either enantiomer. […] The heavy metal response pathway was similarly affected by all nine compounds, which lowered values below control levels. […] The greatest increase in activity of a pathway by all compounds was activation of the Antioxidant Response Element (ARE) but the magnitude varied widely by compound. […] Activation of FOXO transcription factors is repressed by AKT phosphorylation and thus functions as an inverse marker for PI3K/AKT activity, such that low pathway activity increases the magnitude of the FOXO reporter.

C/EBP = assay: dual-luciferase reporter array, C/EBP
Protocol: as §1

[2] = tested on: xenobiotic response element (XRE); assay: dual-luciferase reporter array, XRE
Protocol: as §1

[3] = tested on: peroxisome proliferator-activated receptor (PPAR); assay: dual-luciferase reporter array, PPAR
Protocol: as §1

[4] = tested on: progesterone receptor (PR); assay: dual-luciferase reporter array, PR
Protocol: as §1

[5] = tested on: Antioxidant Response Element (ARE); assay: dual-luciferase reporter array, ARE
Protocol: as §1

heat shock factor (HSF) = assay: dual-luciferase reporter array, HSF
Protocol: as §1

Structure (SMILES)	PI3K/AKT activation (inverse of FOXO reporter response) (PI3K/AKT)	XRE induction [2]	ARE response (activation) [5]	other results
O=C(O)CCCC[C@@H]1CCSS1 [RLA, R-(+)-lipoic acid]	strongly activates	–	–	RAR activation [1]: selectively activates; C/EBP activation (C/EBP): selectively activates
CN(C)CCNC(=O)CCCC[C@H]1CCSS1 [SLAP]	–	induced	–	–
O=C(O)CCCC[C@H]1CCSS1 [SLA, S-(−)-lipoic acid]	minimal	–	–	PPAR activity [3]: lowered
NC(=O)CCCC[C@@H]1CCSS1 [RLAM, R-(+)-lipoamide]	–	–	strongest ARE response	PR activation [4]: selectively activates
NC(=O)CCCC[C@H]1CCSS1 [SLAM, S-(−)-lipoamide]	–	induced	activated	HSF activation (heat shock factor (HSF)): activated
